Laboratory results as given in ChEMBL document CHEMBL3885861, “Open TG-GATES”.

Species on record: Rattus norvegicus
Experiment: Open TG-GATES - Regimen: Daily Repeat
Type: toxicity, organism-based, Sprague-Dawley
Design: regimen Daily Repeat, gender Male, age 6 weeks
Conditions: in vivo, po, 0 mg/kg, route gavage, dose level Control; for APTT / Bas / Eos / Fbg / Hb / Ht / Lym / MCHC / MCV / Mono / Neu / PT / Plat / RBC / Ret / WBC / MCH: tissue Blood; for KIDNEY_L / KIDNEY_R / KIDNEY_TOTAL: tissue Kidney; for LIVER: tissue Liver; for ALP / ALT / AST / BUN / CRE / Ca / DBIL / GLC / K / LDH / Na / PL / RALB / TBIL / TC / TG / TP / gamma-GTP: tissue Plasma

SMILES: CCCCc1oc2ccccc2c1C(=O)c1cc(I)c(OCCN(CC)CC)c(I)c1 [AMIODARONE]
- TERMINAL_BW (72 h, time 3 day): 226.9 g
- APTT (72 h, time 3 day): 18.2 s
- Bas (72 h, time 3 day): 0%
- Eos (72 h, time 3 day): 0.8%
- Fbg (72 h, time 3 day): 229 mg/dL
- Hb (72 h, time 3 day): 13.5 g/dL
- Ht (72 h, time 3 day): 39.6%
- Lym (72 h, time 3 day): 74.8%
- MCHC (72 h, time 3 day): 34.1%
- MCV (72 h, time 3 day): 62.7 fL
- Mono (72 h, time 3 day): 3%
- Neu (72 h, time 3 day): 20.4%
- PT (72 h, time 3 day): 12.3 s
- Plat (72 h, time 3 day): 122.3 x10_4/uL
- RBC (72 h, time 3 day): 631.4 x10_4/ul
- Ret (72 h, time 3 day): 6.4%
- WBC (72 h, time 3 day): 91.2 x10_2/uL
- KIDNEY_L (72 h, time 3 day): 1 g
- KIDNEY_R (72 h, time 3 day): 1 g
- KIDNEY_TOTAL (72 h, time 3 day): 2 g
- LIVER (72 h, time 3 day): 11.2 g
- ALP (72 h, time 3 day): 985.8 IU/L
- ALT (72 h, time 3 day): 37.8 IU/L
- AST (72 h, time 3 day): 72.6 IU/L
- BUN (72 h, time 3 day): 16.2 mg/dL
- CRE (72 h, time 3 day): 0.4 mg/dL
- Ca (72 h, time 3 day): 10.9 mg/dL
- DBIL (72 h, time 3 day): 0.096 mg/dL
- GLC (72 h, time 3 day): 207.4 mg/dL
- K (72 h, time 3 day): 3.9 meq/L
- LDH (72 h, time 3 day): 213 IU/L
- Na (72 h, time 3 day): 140.6 meq/L
- PL (72 h, time 3 day): 162.4 mg/dL
- RALB (72 h, time 3 day): 3.5 g/dL
- TBIL (72 h, time 3 day): 0.1 mg/dL
- TC (72 h, time 3 day): 77.6 mg/dL
- TG (72 h, time 3 day): 113.2 mg/dL
- TP (72 h, time 3 day): 5.8 g/dL
- gamma-GTP (72 h, time 3 day): 1 IU/L
- TERMINAL_BW ([…], time 7 day): 253.9 g
- TERMINAL_BW ([…], time 14 day): 312.1 g
- TERMINAL_BW ([…], time 28 day): 382 g
- APTT ([…], time 7 day): 19.5 s
- Bas ([…], time 7 day): 0%
- Eos ([…], time 7 day): 1%
- Fbg ([…], time 7 day): 218.2 mg/dL
- Hb ([…], time 7 day): 13.6 g/dL
- Ht ([…], time 7 day): 39.8%
- Lym ([…], time 7 day): 78.4%
- MCH ([…], time 7 day): 21.2 pg
- MCV ([…], time 7 day): 61.9 fL
- Mono ([…], time 7 day): 2.4%
- Neu ([…], time 7 day): 17%
- PT ([…], time 7 day): 12 s
- Plat ([…], time 7 day): 117.4 x10_4/uL
- RBC ([…], time 7 day): 642.8 x10_4/ul
- Ret ([…], time 7 day): 5.1%
- WBC ([…], time 7 day): 102.5 x10_2/uL
- APTT ([…], time 14 day): 19.9 s
- Bas ([…], time 14 day): 0%
- Eos ([…], time 14 day): 0.8%
- Fbg ([…], time 14 day): 231.8 mg/dL
- Hb ([…], time 14 day): 14.4 g/dL
- Ht ([…], time 14 day): 41.2%
- Lym ([…], time 14 day): 81.4%
- MCH ([…], time 14 day): 20.9 pg
- MCHC ([…], time 14 day): 34.8%
- MCV ([…], time 14 day): 59.9 fL
- Mono ([…], time 14 day): 2.8%
- Neu ([…], time 14 day): 13.8%
- Plat ([…], time 14 day): 128.6 x10_4/uL
- RBC ([…], time 14 day): 689.2 x10_4/ul
- Ret ([…], time 14 day): 4.6%
- WBC ([…], time 14 day): 85.2 x10_2/uL
- APTT ([…], time 28 day): 21.2 s
- Bas ([…], time 28 day): 0%
- Eos ([…], time 28 day): 1%
- Fbg ([…], time 28 day): 224.6 mg/dL
- Hb ([…], time 28 day): 15.5 g/dL
- Ht ([…], time 28 day): 43.9%
- Lym ([…], time 28 day): 78.4%
- MCH ([…], time 28 day): 19.9 pg
- MCHC ([…], time 28 day): 35.4%
- MCV ([…], time 28 day): 56.3 fL
- Mono ([…], time 28 day): 2.4%
- Neu ([…], time 28 day): 17.2%
- PT ([…], time 28 day): 12.4 s
- Plat ([…], time 28 day): 111.1 x10_4/uL
- RBC ([…], time 28 day): 779.2 x10_4/ul
- Ret ([…], time 28 day): 2.6%
- WBC ([…], time 28 day): 92.4 x10_2/uL
- KIDNEY_L ([…], time 7 day): 1.1 g
- KIDNEY_R ([…], time 7 day): 1.1 g
- KIDNEY_TOTAL ([…], time 7 day): 2.2 g
- KIDNEY_L ([…], time 14 day): 1.2 g
- KIDNEY_R ([…], time 14 day): 1.2 g
- KIDNEY_TOTAL ([…], time 14 day): 2.5 g
- KIDNEY_L ([…], time 28 day): 1.4 g
- KIDNEY_R ([…], time 28 day): 1.3 g
- KIDNEY_TOTAL ([…], time 28 day): 2.7 g
- LIVER ([…], time 7 day): 12.1 g
- LIVER ([…], time 14 day): 14.6 g
- LIVER ([…], time 28 day): 15 g
- ALP ([…], time 7 day): 963.6 IU/L
- ALT ([…], time 7 day): 34 IU/L
- AST ([…], time 7 day): 62.6 IU/L
- BUN ([…], time 7 day): 16.6 mg/dL
- CRE ([…], time 7 day): 0.4 mg/dL
- Ca ([…], time 7 day): 10.6 mg/dL
- DBIL ([…], time 7 day): 0.1 mg/dL
- GLC ([…], time 7 day): 209.6 mg/dL
- K ([…], time 7 day): 3.8 meq/L
- LDH ([…], time 7 day): 179.6 IU/L
- Na ([…], time 7 day): 140.4 meq/L
- PL ([…], time 7 day): 158.4 mg/dL
- RALB ([…], time 7 day): 3.4 g/dL
- TBIL ([…], time 7 day): 0.2 mg/dL
- TC ([…], time 7 day): 73.6 mg/dL
- TG ([…], time 7 day): 116.6 mg/dL
- TP ([…], time 7 day): 5.6 g/dL
- gamma-GTP ([…], time 7 day): 1.6 IU/L
- ALP ([…], time 14 day): 896.2 IU/L
- ALT ([…], time 14 day): 40.6 IU/L
- AST ([…], time 14 day): 70.8 IU/L
- BUN ([…], time 14 day): 16.6 mg/dL
- CRE ([…], time 14 day): 0.5 mg/dL
- Ca ([…], time 14 day): 10.7 mg/dL
- DBIL ([…], time 14 day): 0.09 mg/dL
- GLC ([…], time 14 day): 233.8 mg/dL
- K ([…], time 14 day): 3.5 meq/L
- LDH ([…], time 14 day): 206.4 IU/L
- Na ([…], time 14 day): 140.2 meq/L
- PL ([…], time 14 day): 160.8 mg/dL
- RALB ([…], time 14 day): 3.5 g/dL
- TBIL ([…], time 14 day): 0.2 mg/dL
- TG ([…], time 14 day): 117 mg/dL
- TP ([…], time 14 day): 6 g/dL
- gamma-GTP ([…], time 14 day): 1 IU/L
- ALP ([…], time 28 day): 614.8 IU/L
- ALT ([…], time 28 day): 37.6 IU/L
- AST ([…], time 28 day): 61.6 IU/L
- BUN ([…], time 28 day): 17.4 mg/dL
- CRE ([…], time 28 day): 0.4 mg/dL
- Ca ([…], time 28 day): 10.4 mg/dL
- DBIL ([…], time 28 day): 0.1 mg/dL
- GLC ([…], time 28 day): 214.4 mg/dL
- K ([…], time 28 day): 3.7 meq/L
- LDH ([…], time 28 day): 158.6 IU/L
- Na ([…], time 28 day): 140.2 meq/L
- PL ([…], time 28 day): 151 mg/dL
- RALB ([…], time 28 day): 3.4 g/dL
- TBIL ([…], time 28 day): 0.2 mg/dL
- TC ([…], time 28 day): 67 mg/dL
- TG ([…], time 28 day): 152.4 mg/dL
